Measured values taken from patent US9833497B2, “Human originated EGF domain proteins and use of the same” (CHENGDU SOURCEBIO LIMITED-LIABILITY COMPANY, priority 2013, dated 2017).

What was measured:
Assay type in all cases: cell-based
E. coli BL21 = test: MIC against Gram-negative bacteria: E. coli BL21; conditions: 5×10^5 CFU/mL
Summary of the method: (§1)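 First, colonies from LB agar were grown in LB at 37° C, 185 rpm, to McFarland turbidity 0.5, then centrifuged and resuspended in fresh LB. Next, wells received 5×10^5 CFU/mL bacteria plus two-fold serially diluted EGF domain protein (triplicate). Finally, plates were shaken at 37° C and the no-growth concentration taken as MIC.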

Citrobacter diversus = test: MIC against Gram-negative bacteria: Citrobacter diversus; conditions: 5×10^5 CFU/mL
Summary of the method: as §1

Klebsiella pneumonia = test: MIC against Gram-negative bacteria: Klebsiella pneumonia; conditions: 5×10^5 CFU/mL
Summary of the method: as §1

Moraxella catarrhalis = test: MIC against Gram-negative bacteria: Moraxella catarrhalis; conditions: 5×10^5 CFU/mL
Summary of the method: as §1

Pseudomonas aeruginosa = test: MIC against Gram-negative bacteria: Pseudomonas aeruginosa; conditions: 5×10^5 CFU/mL
Summary of the method: as §1

Proteus vulgaris = test: MIC against Gram-negative bacteria: Proteus vulgaris; conditions: 5×10^5 CFU/mL
Summary of the method: as §1

Proteus mirabilis = test: MIC against Gram-negative bacteria: Proteus mirabilis; conditions: 5×10^5 CFU/mL
Summary of the method: as §1

E. coli DH5α = test: Antibacterial activity: MIC and growth curve against E. coli DH5α in 96-well plate; conditions: minimal inhibitory concentration against E. coli DH5α; 96-well plate, 5×10^5 CFU/mL, 37° C., judged after 8 h
Summary of the method: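 Log-phase DH5α (OD600 about 0.5, 37° C, 185 rpm in LB) was pelleted, resuspended in fresh LB and seeded at 5×10^5 CFU/mL with recombinant protein at 50, 25 and 12.5 μg/mL (two-fold series), in triplicate. Plates were shaken at 175 rpm, 37° C, and OD600 was read every 30 min. MIC was the lowest concentration with no growth.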

Serratia marcescens = test: MIC against Gram-negative bacteria: Serratia marcescens; conditions: 5×10^5 CFU/mL
Summary of the method: as §1

Enterobacter cloacae = test: MIC against Gram-negative bacteria: Enterobacter cloacae; conditions: 5×10^5 CFU/mL
Summary of the method: as §1

Aeromonas hydrophila = test: MIC against Gram-negative bacteria: Aeromonas hydrophila; conditions: 5×10^5 CFU/mL
Summary of the method: as §1

[1] = Citrobacter diversus, 96-well plate, 37° C., 10 h
[2] = Klebsiella pneumonia, 96-well plate, 37° C., 10 h
[3] = Moraxella catarrhalis, 96-well plate, 37° C., 10 h
[4] = Pseudomonas aeruginosa, 96-well plate, 37° C., 10 h
[5] = Proteus vulgaris, 96-well plate, 37° C., 10 h
[6] = Proteus mirabilis, 96-well plate, 37° C., 10 h
[7] = Serratia marcescens, 96-well plate, 37° C., 10 h
[8] = Enterobacter cloacae, 96-well plate, 37° C., 10 h
[9] = Aeromonas hydrophila, 96-well plate, 37° C., 10 h
[10] = C. diversus, 10 h cultivation at 37° C.
[11] = K. pneumonia, 10 h cultivation at 37° C.
[12] = M. catarrhalis, 10 h cultivation at 37° C.
[13] = P. aeruginosa, 10 h cultivation at 37° C.
[14] = P. vulgaris, 10 h cultivation at 37° C.
[15] = P. mirabilis, 10 h cultivation at 37° C.
[16] = S. marcescens, 10 h cultivation at 37° C.
[17] = E. cloacae, 10 h cultivation at 37° C.
[18] = A. hydrophila, 10 h cultivation at 37° C.
[19] = 10 h cultivation at 37° C., two-fold serial dilution

## PRT81 (TCGPCNCDVSKGFDPDCNKTSGECHCKENHYRPPGSPTCL; listed as Homo sapiens)
E. coli BL21; 96-well plate, 37° C., 10 h
  MIC (μg/mL) E. coli BL21: 12.5 µg/mL
Citrobacter diversus; [1]
  MIC (μg/mL) C. diversus: 12.5 µg/mL
Klebsiella pneumonia; [2]
  MIC (μg/mL) K. pneumonia: 25 µg/mL
Moraxella catarrhalis; [3]
  MIC (μg/mL) M. catarrhalis: 50 µg/mL
Pseudomonas aeruginosa; [4]
  MIC (μg/mL) P. aeruginosa: 12.5 µg/mL
Proteus vulgaris; [5]
  MIC (μg/mL) P. vulgaris: 25 µg/mL
Proteus mirabilis; [6]
  MIC (μg/mL) P. mirabilis: 12.5 µg/mL
E. coli DH5α
  MIC: 12.5 µg/mL
Serratia marcescens; [7]
  MIC (μg/mL) S. marcescens: 50 µg/mL
Enterobacter cloacae; [8]
  MIC (μg/mL) E. cloacae: 12.5 µg/mL
Aeromonas hydrophila; [9]
  MIC (μg/mL) A. hydrophila: 25 µg/mL

## PRT800 (GRVCQCQNGASCDHISGKCTCRTGFTGQHCE; listed as Homo sapiens)
E. coli BL21; 10 h cultivation at 37° C.
  MIC (μg/mL) E. coli BL21: 50 µg/mL
Citrobacter diversus; [10]
  MIC (μg/mL) C. diversus: 50 µg/mL
Klebsiella pneumonia; [11]
  MIC (μg/mL) K. pneumonia: 12.5 µg/mL
Moraxella catarrhalis; [12]
  MIC (μg/mL) M. catarrhalis: 12.5 µg/mL
Pseudomonas aeruginosa; [13]
  MIC (μg/mL) P. aeruginosa: 25 µg/mL
Proteus vulgaris; [14]
  MIC (μg/mL) P. vulgaris: 50 µg/mL
Proteus mirabilis; [15]
  MIC (μg/mL) P. mirabilis: 12.5 µg/mL
E. coli DH5α
  MIC: 25 µg/mL
Serratia marcescens; [16]
  MIC (μg/mL) S. marcescens: 25 µg/mL
Enterobacter cloacae; [17]
  MIC (μg/mL) E. cloacae: 50 µg/mL
Aeromonas hydrophila; [18]
  MIC (μg/mL) A. hydrophila: 12.5 µg/mL

## PRT538 (CPCPLPHLANFAESCYRKNGAVRCICNENYAGPNCERCAPGYYGNPLLIGSTCKK; listed as Homo sapiens)
E. coli BL21; 96-well plate, 37° C., 10 h
  MIC against E. coli BL21: 12.5 µg/mL
Citrobacter diversus; 96-well plate, 37° C., 10 h
  MIC against C. diversus: 25 µg/mL
Klebsiella pneumonia; 96-well plate, 37° C., 10 h
  MIC against K. pneumonia: 12.5 µg/mL
Moraxella catarrhalis; 96-well plate, 37° C., 10 h
  MIC against M. catarrhalis: 12.5 µg/mL
Pseudomonas aeruginosa; 96-well plate, 37° C., 10 h
  MIC against P. aeruginosa: 25 µg/mL
Proteus vulgaris; 96-well plate, 37° C., 10 h
  MIC against P. vulgaris: 12.5 µg/mL
Proteus mirabilis; 96-well plate, 37° C., 10 h
  MIC against P. mirabilis: 12.5 µg/mL
E. coli DH5α
  MIC: 25 µg/mL
Serratia marcescens; 96-well plate, 37° C., 10 h
  MIC against S. marcescens: 50 µg/mL
Enterobacter cloacae; 96-well plate, 37° C., 10 h
  MIC against E. cloacae: 25 µg/mL
Aeromonas hydrophila; 96-well plate, 37° C., 10 h
  MIC against A. hydrophila: 12.5 µg/mL

## PRT1161 (DIDECASHPCKNGATCIDQPGNYFCQCVPPFKVVDGFSCL; listed as Homo sapiens)
E. coli BL21; [19]
  MIC E. coli BL21: 12.5 µg/mL
Citrobacter diversus; [19]
  MIC C. diversus: 50 µg/mL
Klebsiella pneumonia; [19]
  MIC K. pneumonia: 12.5 µg/mL
Moraxella catarrhalis; [19]
  MIC M. catarrhalis: 25 µg/mL
Pseudomonas aeruginosa; [19]
  MIC P. aeruginosa: 12.5 µg/mL
Proteus vulgaris; [19]
  MIC P. vulgaris: 25 µg/mL
Proteus mirabilis; [19]
  MIC P. mirabilis: 12.5 µg/mL
E. coli DH5α
  MIC: 25 µg/mL
Serratia marcescens; [19]
  MIC S. marcescens: 50 µg/mL
Enterobacter cloacae; [19]
  MIC E. cloacae: 25 µg/mL
Aeromonas hydrophila; [19]
  MIC A. hydrophila: 25 µg/mL

## PRT201 (NMSSCPLDSKGKVCSGHGVCSNEATCICDFTWAGTDCS; listed as Homo sapiens)
E. coli BL21; 10 h cultivation at 37° C.
  MIC (μg/mL) E. coli BL21: 12.5 µg/mL
Citrobacter diversus; [10]
  MIC (μg/mL) C. diversus: 50 µg/mL
Klebsiella pneumonia; [11]
  MIC (μg/mL) K. pneumonia: 12.5 µg/mL
Moraxella catarrhalis; [12]
  MIC (μg/mL) M. catarrhalis: 12.5 µg/mL
Pseudomonas aeruginosa; [13]
  MIC (μg/mL) P. aeruginosa: 50 µg/mL
Proteus vulgaris; [14]
  MIC (μg/mL) P. vulgaris: 50 µg/mL
Proteus mirabilis; [15]
  MIC (μg/mL) P. mirabilis: 25 µg/mL
E. coli DH5α
  MIC: 50 µg/mL
Serratia marcescens; [16]
  MIC (μg/mL) S. marcescens: 25 µg/mL
Enterobacter cloacae; [17]
  MIC (μg/mL) E. cloacae: 50 µg/mL
Aeromonas hydrophila; [18]
  MIC (μg/mL) A. hydrophila: 12.5 µg/mL

## PRT32 (RCEAQKWGPECNHLCTACMNNGVCHEDTGECICPPGFMGRTCE; listed as Homo sapiens)
E. coli BL21; 96-well plate, 37° C., 10 h
  MIC (μg/mL) E. coli BL21: 50 µg/mL
Citrobacter diversus; [1]
  MIC (μg/mL) C. diversus: 12.5 µg/mL
Klebsiella pneumonia; [2]
  MIC (μg/mL) K. pneumonia: 12.5 µg/mL
Moraxella catarrhalis; [3]
  MIC (μg/mL) M. catarrhalis: 50 µg/mL
Pseudomonas aeruginosa; [4]
  MIC (μg/mL) P. aeruginosa: 12.5 µg/mL
Proteus vulgaris; [5]
  MIC (μg/mL) P. vulgaris: 25 µg/mL
Proteus mirabilis; [6]
  MIC (μg/mL) P. mirabilis: 12.5 µg/mL
E. coli DH5α
  MIC: 12.5 µg/mL
Serratia marcescens; [7]
  MIC (μg/mL) S. marcescens: 50 µg/mL
Enterobacter cloacae; [8]
  MIC (μg/mL) E. cloacae: 25 µg/mL
Aeromonas hydrophila; [9]
  MIC (μg/mL) A. hydrophila: 50 µg/mL
